The values below come from paper PMC10761933, “Acquired and intrinsic resistance to vemurafenib in BRAF^V600E ‐driven melanoma brain metastases” (FEBS Open Bio, 2023).

Data set [1] in a line: Vemurafenib distribution in plasma, brain regions and tumor of A375 tumor‐bearing mice (LC–MS/MS). The format is in vivo. The following applies: for discrepancy in plasma concentration vs the previous pharmacokinetic experiment: 4 h after third daily administration. As to the method:
To study its distribution in tumor‐bearing mice, vemurafenib was administered p.o. to tumor‐bearing mice for 3 days at a dose of 10 or 25 mg·kg^−1 q.d., starting 14 days after intracranial tumor cell injection. One group of mice received 10 mg·kg^−1 vemurafenib 4 h after administration of 100 mg·kg^−1 elacridar. Four hours after the third administration, blood was collected by heart puncture, and whole brains were dissected and divided into four parts: ipsilateral hemisphere (tissue from the tumor‐bearing hemisphere that was free of macroscopic tumor tissue), contralateral hemisphere (the tumor‐free hemisphere), cerebellum and macroscopic tumor. In a follow‐up experiment, tissues and plasma were collected 4 h after 5 and 10 consecutive daily p.o. administrations of vemurafenib. All tissues were weighed and subsequently homogenized using a FastPrep®‐24 (MP‐Bio‐medicals, Irvine, CA, USA) in 3 mL 1% (w/v) bovine serum albumin. All tissue samples were prepared for LC–MS/MS analysis as described above for plasma samples.
The LC–MS/MS system consisted of an API 3000 mass spectrometer (Sciex, Framingham, MA, USA) coupled to an UltiMate 3000 LC System (Dionex, Sunnyvale, CA, USA). Samples were separated using a ZORBAX Extend‐C18 column (Agilent, Santa Clara, CA, USA), preceded by a Securityguard C18 precolumn (Phenomenex, Utrecht, the Netherlands). Elution was done using a mixture of mobile phase A (0.1% formic acid in water (v/v)) and mobile phase B (methanol) in a 5 min gradient from 20% to 95% B, followed by 95% B that was maintained for 3 min and then re‐equilibrated at 20% B. Multiple reaction monitoring parameters were 490.2/383.1 (vemurafenib) and 496.2/389.1 (vemurafenib‐^13C6). System control and data analysis were done using ANALYST ® 1.6.2 software (AB Sciex, Foster City, CA, USA).

The subject of data set [2] is intracranial A375 tumors. Nature of the data set: Immunohistochemical analysis of vemurafenib‐resistant A375 melanoma brain metastases. The following applies: Abcb1a/b;Abcg2−/− mice, 10 mg·kg^−1 × 10d, vs untreated. The format is in vivo. As to the method:
Mouse brains were fixed in 4% (v/v) formaldehyde. Alternatively, whole heads without skin were fixed in 4% (v/v) formaldehyde and 5% (v/v) glacial acetic acid and subsequently decalcified using a 6.5% (v/v) formic acid solution for 3 days at 37 °C. After fixation, samples were paraffin embedded and sliced into 4 μm thick sections. Whole head slides were stained for hematoxylin and eosin (H&E), human vimentin (1 : 4000; M0725; DakoCytomation, Glostrup, Denmark), P‐gp (1 : 200; 13978; Cell Signaling Technology, Danvers, MA, USA), BCRP (1 : 400; ab24115; Abcam, Cambridge, UK), and CD31 (1 : 200; ab28364; Abcam). Vessel positivity for P‐gp, BCRP, and CD31, as quantified in Fig. 1B, was manually scored in at least 200 vessels per staining. Specific antibody staining for P‐gp and BCRP was validated previously using whole head slices from Abcb1a/b;Abcg2 ^ −/− mice (fig. S2 from).
Brain slides were stained for H&E, PDGFRβ (1 : 50; 3169; Cell Signaling Technology), phospho‐MET (1 : 150; 3077; Cell Signaling Technology), MET (1 : 100; AF527; R&D Systems, Minneapolis, MN, USA), phospho‐IGF1R (1 : 40 000; sc‐101703; Santa Cruz Biotechnology, Dallas, TX, USA), AXL (1 : 100; 8661; Cell Signaling Technology), NGFR (1 : 400; 8238; Cell Signaling Technology), phospho‐EGFR (1 : 600; ab40815; Abcam), EGFR (1 : 200; ab52894; Abcam), BRAF^V600E (1 : 100; E19290; SpringBioscience, Pleasanton, CA, USA), phospho‐ERK1/2 (1 : 200; 4370; Cell Signaling Technology), phospho‐AKT (1 : 8000; 4060; Cell Signaling Technology), phospho‐S6 (1 : 1000; 2211; Cell Signaling Technology), phospho‐4EBP1 (1 : 100; 2855; Cell Signaling Technology), 4EBP1 (1 : 1200; 9644; Cell Signaling Technology), SOX10 (1 : 100; sc‐17342; Santa Cruz Biotechnology), MITF (1 : 100; 284 M‐94; Cell Marque, Rocklin, CA, USA), and Ki‐67 (1 : 3000; ab15580; Abcam).

Data set [3] can be described thus: Body weight during efficacy studies. The format is in vivo, mice. As to the method: For the subcutaneous tumor model, therapy was initiated 2 weeks after implantation, when the tumor volume exceeded 40 mm^3. FVB WT and Abcb1a/b;Abcg2 ^ −/− nude mice (n = 8) received 25 and 10 mg·kg^−1 of vemurafenib daily, respectively. Control mice (n = 8) received vehicle. Tumor development was assessed by caliper twice a week. For the intracranial tumor model, treatment was started about 2 weeks after intracranial injection of tumor cells, when full‐blown tumors were present in all animals. WT and Abcb1a/b;Abcg2 ^ −/− nude mice received vehicle, 25 mg·kg^−1 vemurafenib, 10 mg·kg^−1 vemurafenib plus 100 mg·kg^−1 elacridar, or 10 mg·kg^−1 vemurafenib once daily for 10 consecutive days or in a 5 days on/2 days off/5 days on schedule, as indicated in the relevant figure panels. Tumor growth was monitored by BLI every 4 or 5 days. Mice were weighed daily weighed examined for abnormalities. The mice were humanely sacrificed based on BLI results or when weight loss exceeded 20% of the initial body weight.

On the set-up of data set [4]: method as in PMID 25933211. The following applies: clinical study; cited from earlier work.
For data set [5] the following is noted: oral, WT mice; cited from earlier work.
For data set [6], the system named is melanoma brain metastases. The note with it: MBM patients; cited from earlier work.

As to `CCCS(=O)(=O)Nc1ccc(F)c(C(=O)c2c[nH]c3ncc(-c4ccc(Cl)cc4)cc23)c1F` [vemurafenib], the “levels in tumor core of WT mice relative to Abcb1a/b;Abcg2−/− mice” value in data set [1] (4 h after third daily oral administration) is given as “approximately half”. In addition, the “concentration in tumor regions, 10 days vs 5 days of treatment” value in data set [1] (Abcb1a/b;Abcg2−/− mice and WT mice also receiving elacridar) was “even higher at the later time point”. Further, the Kp at 4 h in data set [1] (FVB nude, mouse, oral, 25 mg·kg^−1, WT mice, stated as very close to the total blood volume of the murine brain, read-out: tissue–plasma ratios in normal brain regions) was approximately 0.02. Moreover, the “penetration in normal brain regions” value in data set [1] (WT mice, 4 h after third daily oral administration) is listed as “negligible”. In addition, the figures for the “discrepancy in plasma concentration vs the previous pharmacokinetic experiment” value in data set [1] (tumor‐bearing Abcb1a/b;Abcg2−/− mice) and in data set [1] (tumor‐bearing WT mice that also received elacridar) were “twofold” and “no difference”, respectively. Besides, in data set [1] (tumor‐bearing WT mice, 25 mg·kg^−1), the “plasma concentration, long‐term (10 days) vs short‐term (5 days) treated” value was “considerably lower”. The “plasma concentration relative to the previous pharmacokinetic experiment (single dose, tumor‐free)” value in data set [1] (tumor‐bearing WT mice, 25 mg·kg^−1, 4 h after third daily administration) is “around one‐fourth”. The “PDGFRβ expression (immunohistochemistry)” value in data set [2] is “appeared to be diminished”. Also, the “proliferation marker Ki‐67 (immunohistochemistry)” value in data set [2] is recorded as “similarly unaffected”. For the same molecule, the “immunohistochemical staining of phospho‐S6 and phospho‐4EBP1” value in data set [2] (n = 2 per group) is on record as “profoundly reduced”. For the same molecule, the body weight result in data set [3] (Abcb1a/b;Abcg2−/− mice with intracranial A375, two cycles of 5 days of 25 mg·kg^−1 daily oral) is recorded as “without affecting body weight”; in data set [3] (intracranial A375, any treatment regimen (WT 25, WT 10 + elacridar, Abcb1a/b;Abcg2−/− 10 mg·kg^−1)) it was “could not observe any weight loss”; in data set [3] (subcutaneous A375, 25 mg·kg^−1 in WT and 10 mg·kg^−1 in Abcb1a/b;Abcg2−/− mice, 13 days), “did not result in body weight loss”. Further, the “concentration in cerebrospinal fluid (CSF) as share of the plasma concentration” value in data set [4] is less than 1%. Also, the “brain–plasma ratio” value in data set [5] is given as “around 0.02”. The median overall survival in data set [6] is listed as 4.3 months.
